Data: US11434198B2, “Compounds and methods for the treatment of neurodegenerative diseases” (Resilio Therapeutics, LLC, priority 2016, dated 2022)

Test: pH stability of prodrugs of DFMO in PBS buffer
Type: physicochemical
Conditions: for intact prodrug lost over the next 24 hours: 24 hours following the initial phase; for decrease in the amount of intact, non-degraded prodrug over the first hour of incubation: LC/MS/MS
Protocol: The stability of prodrugs of DFMO to different pH conditions over time was assayed. Prodrugs were reconstituted in dimethylsulfoxide (DMSO), diluted into phosphate buffered saline (PBS) of different pH values, incubated for different lengths of time at room temperature, and then analyzed by LC/MS/MS for changes in the levels of each prodrug. […] Following this initial phase, the (2)-prodrug was reasonably stable over the next 24 hours so that less than 20% of the intact prodrug was lost at pH 3 and 5, and about 60% of the intact material was lost at pH 8 over a day. […] Similar results were obtained with the other prodrugs tested.

For `CC(OC(=O)NCCCC(N)(C(=O)O)C(F)F)OC(=O)C(C)C` (stereo not shown) [(2)-prodrug, 2-amino-2-(difluoromethyl)-5-[1-(2-methylpropanoyloxy)ethoxycarbonylamino]pentanoic acid], the “stability of intact, non-degraded prodrug over time at different pH (in words)” value (PBS of different pH values, room temperature) was “slowly lost”, the “intact prodrug lost over the next 24 hours” value (PBS pH 3, room temperature) was “less than 20%” and the “decrease in the amount of intact, non-degraded prodrug over the first hour of incubation” value (PBS pH 3, room temperature) was “about 60%”. For the same compound, the “intact prodrug lost over the next 24 hours” value (PBS pH 5, room temperature) was “less than 20%”, the “decrease in the amount of intact, non-degraded prodrug over the first hour of incubation” value (PBS pH 5, room temperature) was 30-35% and the “intact prodrug lost over the next 24 hours” value (PBS pH 8, room temperature) was “about 60%”. For the same compound, the “decrease in the amount of intact, non-degraded prodrug over the first hour of incubation” value (PBS pH 8, room temperature) was 30-35%.
